The source made the active and inactive calls.
Columns and labels:
Format in all cases: functional
[1] = biological target: T1, Hexokinase HKDC1 (Homo sapiens, UniProt Q2TB90); assay: activation of HKDC1 glucose phosphorylation – biochemical, W721R variant, dose response (AID 504730)
T1 sequence (Q2TB90 whole entry): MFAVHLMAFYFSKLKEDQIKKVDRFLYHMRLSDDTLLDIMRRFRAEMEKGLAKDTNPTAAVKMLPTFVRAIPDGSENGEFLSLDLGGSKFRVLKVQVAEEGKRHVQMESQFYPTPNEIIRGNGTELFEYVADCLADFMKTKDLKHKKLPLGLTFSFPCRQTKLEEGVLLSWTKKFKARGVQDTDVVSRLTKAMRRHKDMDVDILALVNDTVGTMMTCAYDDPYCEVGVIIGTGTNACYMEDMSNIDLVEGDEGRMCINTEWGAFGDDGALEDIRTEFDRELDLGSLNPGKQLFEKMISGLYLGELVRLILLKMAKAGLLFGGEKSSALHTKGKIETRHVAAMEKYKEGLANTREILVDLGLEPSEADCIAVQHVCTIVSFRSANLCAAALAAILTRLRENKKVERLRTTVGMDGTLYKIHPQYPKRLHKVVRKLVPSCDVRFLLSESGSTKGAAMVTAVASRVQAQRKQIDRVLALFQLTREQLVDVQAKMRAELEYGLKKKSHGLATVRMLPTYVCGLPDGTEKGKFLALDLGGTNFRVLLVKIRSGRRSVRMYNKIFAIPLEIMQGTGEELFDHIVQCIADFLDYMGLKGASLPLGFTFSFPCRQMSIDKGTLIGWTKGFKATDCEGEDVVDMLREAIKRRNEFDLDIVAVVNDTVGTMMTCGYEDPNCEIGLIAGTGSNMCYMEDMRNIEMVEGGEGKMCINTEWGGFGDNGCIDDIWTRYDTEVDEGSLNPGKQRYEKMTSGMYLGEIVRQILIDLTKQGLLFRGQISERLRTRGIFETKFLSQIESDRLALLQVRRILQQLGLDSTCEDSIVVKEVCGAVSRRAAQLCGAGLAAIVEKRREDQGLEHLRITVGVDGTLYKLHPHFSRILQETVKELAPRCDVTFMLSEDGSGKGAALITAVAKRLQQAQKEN

[2] = biological target: Eukaryotic translation initiation factor 4E (Mus musculus, UniProt P63073); assay: blockers of eIF4G binding by eIF4E – biochemical, TR-FRET, dose response (AID 855);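 note: potency for disrupting eIF4E binding to eIF4GI seen as loss of FRET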
[3] = biological target: DNA dC->dU-editing enzyme APOBEC-3G (Homo sapiens, UniProt Q9HC16); assay: Dose Response confirmation of small molecule APOBEC3G DNA Deaminase Inhibitors via a fluorescence-based single-stranded DNA deaminase assay. [Related pubchem assays (depositor defined):AID493012, AID493028]
[4] = biological target: T2, Hexokinase-1 (Homo sapiens, UniProt P19367); assay: HK1 enzyme activation by HKDC1 hits – biochemical, selectivity assay for HKDC1 activator project, dose response (AID 504762)
T2 sequence (P19367 whole entry): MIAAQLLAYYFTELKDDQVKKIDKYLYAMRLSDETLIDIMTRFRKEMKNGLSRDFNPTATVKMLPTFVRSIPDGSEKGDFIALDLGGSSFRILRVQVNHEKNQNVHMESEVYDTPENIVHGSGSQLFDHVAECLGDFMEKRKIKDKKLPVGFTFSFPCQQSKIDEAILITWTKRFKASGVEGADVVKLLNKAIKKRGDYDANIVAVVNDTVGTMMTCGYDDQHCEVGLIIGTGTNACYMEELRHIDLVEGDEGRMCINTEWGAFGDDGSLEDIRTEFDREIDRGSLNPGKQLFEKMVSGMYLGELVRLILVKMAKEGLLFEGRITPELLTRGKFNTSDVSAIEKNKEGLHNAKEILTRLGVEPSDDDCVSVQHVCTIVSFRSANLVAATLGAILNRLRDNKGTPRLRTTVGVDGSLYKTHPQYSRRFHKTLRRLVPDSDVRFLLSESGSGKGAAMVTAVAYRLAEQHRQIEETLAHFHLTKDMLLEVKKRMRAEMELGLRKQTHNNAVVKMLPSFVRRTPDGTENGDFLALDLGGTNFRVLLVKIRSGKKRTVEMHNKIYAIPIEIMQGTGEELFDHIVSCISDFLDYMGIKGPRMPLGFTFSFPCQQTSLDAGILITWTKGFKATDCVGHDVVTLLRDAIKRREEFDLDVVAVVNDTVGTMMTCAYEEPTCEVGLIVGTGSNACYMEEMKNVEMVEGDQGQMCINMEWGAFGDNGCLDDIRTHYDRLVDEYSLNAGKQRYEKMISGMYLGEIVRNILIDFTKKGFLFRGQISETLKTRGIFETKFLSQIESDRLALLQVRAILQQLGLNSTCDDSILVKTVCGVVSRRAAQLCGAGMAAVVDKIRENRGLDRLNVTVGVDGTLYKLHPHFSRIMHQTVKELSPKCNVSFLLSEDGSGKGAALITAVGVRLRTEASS

[5] = biological target: T3, Polyadenylate-binding protein 1 (Homo sapiens, UniProt P11940); assay: MLLE binding blockers, Cy5 peptide tracer – biochemical, fluorescence polarization, Cy5-PAM2 peptide, secondary, miRNA deadenylation inhibitor project, dose response (AID 602260); details: read-out: IC50_Mean
[6] = biological target: T3, Polyadenylate-binding protein 1; assay: MLLE domain peptide-binding blockers, IC50 – biochemical, fluorescence polarization, FITC-PAM2 peptide, dose response (AID 602259); details: read-out: IC50_Mean
[7] = biological target: T4, Kappa-type opioid receptor (Homo sapiens, UniProt P41145); assay: SAR analysis of small molecule antagonists of the kappa opioid receptor via a luminescent beta-arrestin assay - Set 4. [Related pubchem assays (depositor defined):AID1777, AID1778, AID1785, AID1786, AID1966, AID2133, AID2136, AID2285]
[8] = biological target: T4, Kappa-type opioid receptor; assay: SAR analysis of small molecule antagonists of the kappa opioid receptor via a luminescent beta-arrestin assay - Set 5. [Related pubchem assays (depositor defined):AID1778, AID1785]

T3 sequence (P11940 whole entry, the tested form may be a part): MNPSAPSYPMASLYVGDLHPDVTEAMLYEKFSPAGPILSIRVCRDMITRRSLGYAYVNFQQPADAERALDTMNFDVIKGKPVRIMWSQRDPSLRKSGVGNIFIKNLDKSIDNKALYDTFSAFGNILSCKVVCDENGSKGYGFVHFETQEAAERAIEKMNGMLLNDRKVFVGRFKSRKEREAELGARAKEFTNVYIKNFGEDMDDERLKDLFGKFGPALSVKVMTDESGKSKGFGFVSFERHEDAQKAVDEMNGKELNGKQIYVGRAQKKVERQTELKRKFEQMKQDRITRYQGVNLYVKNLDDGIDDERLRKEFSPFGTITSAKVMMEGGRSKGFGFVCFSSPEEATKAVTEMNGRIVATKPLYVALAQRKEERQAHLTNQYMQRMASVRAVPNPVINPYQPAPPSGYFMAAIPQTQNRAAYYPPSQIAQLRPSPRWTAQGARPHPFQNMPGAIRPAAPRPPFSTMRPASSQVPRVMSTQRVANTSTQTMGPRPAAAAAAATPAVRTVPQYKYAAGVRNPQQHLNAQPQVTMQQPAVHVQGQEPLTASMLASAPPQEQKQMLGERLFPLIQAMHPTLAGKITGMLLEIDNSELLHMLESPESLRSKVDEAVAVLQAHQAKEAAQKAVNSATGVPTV
T4 sequence (P41145 whole entry): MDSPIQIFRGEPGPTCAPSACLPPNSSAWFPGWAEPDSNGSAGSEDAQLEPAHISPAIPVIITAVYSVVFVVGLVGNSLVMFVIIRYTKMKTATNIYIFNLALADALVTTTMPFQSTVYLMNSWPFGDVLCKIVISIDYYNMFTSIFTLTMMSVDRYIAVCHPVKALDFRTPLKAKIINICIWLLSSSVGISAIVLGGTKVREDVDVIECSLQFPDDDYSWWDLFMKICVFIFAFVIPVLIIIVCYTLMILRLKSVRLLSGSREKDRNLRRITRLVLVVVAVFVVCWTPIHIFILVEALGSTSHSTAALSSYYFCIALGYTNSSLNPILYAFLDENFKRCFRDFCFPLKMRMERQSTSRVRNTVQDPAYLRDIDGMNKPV
Chain of Eukaryotic translation initiation factor 4E (P63073 whole entry): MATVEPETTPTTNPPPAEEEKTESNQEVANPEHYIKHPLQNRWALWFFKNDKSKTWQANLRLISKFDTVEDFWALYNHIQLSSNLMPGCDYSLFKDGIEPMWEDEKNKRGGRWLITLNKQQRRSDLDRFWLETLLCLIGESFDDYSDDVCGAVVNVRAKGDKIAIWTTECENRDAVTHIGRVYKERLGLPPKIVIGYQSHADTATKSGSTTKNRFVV
Chain of DNA dC->dU-editing enzyme APOBEC-3G (Q9HC16 whole entry): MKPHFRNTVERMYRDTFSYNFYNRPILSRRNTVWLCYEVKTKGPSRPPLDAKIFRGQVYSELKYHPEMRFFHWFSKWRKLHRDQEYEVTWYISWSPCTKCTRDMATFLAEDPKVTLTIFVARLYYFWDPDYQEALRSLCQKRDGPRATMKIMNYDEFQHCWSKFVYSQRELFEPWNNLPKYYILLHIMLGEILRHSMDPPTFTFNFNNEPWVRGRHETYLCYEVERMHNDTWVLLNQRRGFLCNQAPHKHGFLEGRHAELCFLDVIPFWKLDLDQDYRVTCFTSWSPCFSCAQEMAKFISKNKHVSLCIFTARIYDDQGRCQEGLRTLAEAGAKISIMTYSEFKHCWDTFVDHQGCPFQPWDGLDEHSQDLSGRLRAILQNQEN

CCOC(=O)c1c(NC(=O)CSc2nnnn2-c2ccc(OC)cc2)sc(C)c1C
EC50 [1]: > 80 µM (inactive) | IC50 [2]: > 64 µM (inactive) | IC50 [3]: 54.7 µM (active) | EC50 [4]: 37.4 µM (inactive) | IC50 [5]: > 66 µM (inactive) | IC50 [6]: > 66 µM (inactive)

COc1ccc(CN(CCNC(=O)c2ccc(CNS(=O)(=O)Cc3ccccc3)cc2)C(C)C)cc1
IC50 [7]: 1.66 µM (active) | IC50 [8]: 0.452 µM (active)
